Experiments:
[1] = tested on: obese ob/ob mouse; assay: Effect on food intake and weight development in the obese ob/ob mouse; type: in vivo, mouse (female ob/ob C57B1/6J); details: 5 mg/kg IP, twice daily
Description: The compounds of the invention were administered in vivo to the obese ob/ob mouse in order to evaluate their influence on food intake and weight development. The animals used are 13- to 18-week-old female ob/ob C57B1/6J mice. They are divided into groups each comprising 4 animals per cage, the cages being fitted with a grating floor, and the mice having free access to food.
Before the experiments, the animals are conditioned for a period ranging from 2 to 3 weeks until their food consumption has stabilised. The experiments may be summarised as follows:
D -14 to D -7: conditioning
D -7 to D -3: measurement of the basal food intake
D0 to D +3: animals treated twice daily, the control groups being given the carrier D0 to D +4: daily measurement of food intake and body weight
The test products are dissolved, immediately before use, in water, 0.9% sodium chloride, propylene glycol or dimethyl sulphoxide, depending upon their solubility, and are administered intraperitoneally (IP), in a volume of 2.5 ml/kg.
The parameters measured are the weight of the feed troughs containing the food and the body weight.
The results are expressed as: percentage variation in food intake under treatment compared with the basal food intake; percentage variation in body weight between the first and last day of treatment.

[2] = target: T1, Y5 receptor (Homo sapiens, UniProt Q15761); assay: In vitro affinity for NPY receptors, competition binding with [125I]-PYY on cell line expressing the Y5 sub-type; details: radioligand [125I]-PYY 15 to 65 pM
T1 construct: host or cells: unnamed cell line expressing the Y5 sub-type
T1 sequence (Q15761 1-445): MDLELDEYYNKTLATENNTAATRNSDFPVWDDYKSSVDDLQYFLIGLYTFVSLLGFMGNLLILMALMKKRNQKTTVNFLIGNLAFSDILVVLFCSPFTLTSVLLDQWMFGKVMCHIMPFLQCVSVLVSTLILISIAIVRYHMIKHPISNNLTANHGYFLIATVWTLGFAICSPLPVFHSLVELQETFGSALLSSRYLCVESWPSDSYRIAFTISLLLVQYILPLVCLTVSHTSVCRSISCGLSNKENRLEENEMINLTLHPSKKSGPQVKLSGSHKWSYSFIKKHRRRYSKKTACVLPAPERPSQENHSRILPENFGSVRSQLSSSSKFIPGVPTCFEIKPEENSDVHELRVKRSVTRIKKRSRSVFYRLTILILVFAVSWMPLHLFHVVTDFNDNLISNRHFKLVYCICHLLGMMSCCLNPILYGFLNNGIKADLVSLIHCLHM
Description: The capacity of the compounds of the invention to bind to NPY receptors was measured on various cell lines, each expressing one of the receptor sub-types studied. Competition binding experiments were carried out using the peptide [^125 I]-PYY as radioligand at concentrations ranging from 15 to 65 pM. The non-specific fraction is measured in the presence of a concentration of 1 μM NPY. The cells are incubated for a period ranging from 1 to 2 hours depending upon the lines, and the radioactivity is collected after filtration over a GF/C filter treated with 0.1% PEI, before being measured.
The results are expressed as IC50.

IC50 [2]: 14.5 nM
SMILES: O=C(NNC(=O)C1CCC(CNS(=O)(=O)c2ccc3ccccc3c2)CC1)c1ccccc1 (stereo not drawn) [Example 44, N2-({4-[(2-Benzoylhydrazino)carbonyl]cyclohexyl}methyl)-2-naphthalenesulphonamide]
Food intake % variation (D1), Treated (compared with the basal food intake) ([1]; D1, control -25.3): -75.2%
Body weight % variation (D4/D0) ([1]; D4/D0): -6.0%
